SMILES strings stand for the structures.

Here are results for one molecule from patent publication US20220331322A1, “COMPOUND FOR INHIBITING CELL DEATH” (Christian-Albrechts-Universität zu Kiel, priority 2019, published 2022).

The test system of test [1] is L929 cells. Nature of the test: Time profile of blocking TZ-induced necroptosis, FACS (7-AAD/Annexin V). In kind it is cell-based, murine. The note with it: L929, 10 ng/ml TNF-α + 25 μM zVAD (TZ), 24 h; primidone 1 mM, Nec-1s 25 μM; one representative experiment of three. The protocol:
The time profile of primidone for blocking cell death was compared to the one of Nec-1s. For this purpose, murine L929 cells were stimulated at 37° C. for 24 h with 10 ng/ml TNF-α+25 μM zVAD (TZ) in the presence of 1 mM primidone and 25 μM Nec-1s, respectively, for the indicated durations. Nec-1s and primidone were added 30 min before, 60 min and 180 min after the induction of RIPK1-mediated necroptosis, respectively. Cell death was quantified by FACS analysis using 7-amino-actinomycin D and phosphatidylserine accessibility (Annexin V staining) as markers.

For test [2], the system named is L929 cells. The experiment in a line: TLR3-mediated cell death induced by poly (I:C) + zVAD. It counts as cell-based, murine. The note with it: L929, 1 μg/ml poly (I:C) + 25 μM zVAD, 24 h; primidone 1 mM, Nec-1s 20 μM. An excerpt:
Cell death was induced by activation of the Toll-like receptor 3 (TLR3). TLR3 is mainly expressed on immune cells, where it senses pathogen-associated molecular patterns and initiates innate immune response. The TLR3 agonist poly (I:C) was developed to mimic pathogens infection and boost immune system activation. In experimental models, poly (I:C) is known to induce regulated cell death in cells expressing TLR3. To examine whether primidone also blocks TLR3-mediated cell death, murine L929 cells were stimulated for 24 h at 37° C. with vehicle (a), 1 μg/ml of the TLR3 ligand poly (I:C) alone (b) or in combination with 25 μM zVAD (c). In addition, cells were stimulated with 1 μg/ml poly (I:C), 25 μM zVAD and 20 μM Nec-1s (d) and with 1 μg/ml poly (I:C), 25 μM zVAD and 1 mM primidone (e).

The subject of another test is NF-κB. The experiment in a line: Western blot of NF-κB activation (p-NF-κB) after TZ stimulation. It counts as cell-based, murine. Particulars: L929, 100 ng/ml TNF-α + 25 μM zVAD (TZ), 1 mM primidone. The protocol:
It was then analyzed whether primidone interferes with the canonical NF-κB signaling pathway which drives the expression of pro-survival molecules. The binding of TNF-α to its corresponding receptor (TNFR1) initially results in the activation of the NF-κB signaling pathway. In this early phase of TNF activation, the cells are protected from cell death by the presence of a membrane-bound complex known as complex I which is formed within seconds after engagement of TNFR1 by TNF-α. This complex induces the expression of pro-survival molecules via activation of the canonical NF-κB pathway. As the default response of most cells to TNF-α is survival and NF-κB-mediated upregulation of pro-survival genes, it was analyzed whether primidone functions in a survival-signaling mode and thus indirectly prevents cell death signaling. For this purpose, murine L929 cells were stimulated at 37° C. for different time periods (as indicated) with 100 ng/ml TNF-α+25 μM zVAD (TZ) in the absence (vehicle) or presence of 1 mM primidone. Subsequently, a Western blot analysis of the cell lysates using a specific p-NF-κB antibody was performed.

The test system of test [3] is L929 cells. Nature of the test: Stimulation assay: TNF-α + 5Z-7 (± zVAD) induced RIPK1-dependent apoptosis/necroptosis. It counts as cell-based, murine. Particulars: primidone 1 mM, Nec-1s 20 μM. The protocol:
Murine fibroblasts (L929 cells) were stimulated for 24 h at 37° C. in the presence of (a) vehicle, (b) 10 ng/ml tumor necrosis factor alpha (TNF-α), (c) 1 μM 5Z-7-oxozeaenol (5Z-7), (d) a combination of 10 ng/ml TNF-α and 1 μM 5Z-7, (e) a combination of 10 ng/ml TNF-α, 1 μM 5Z-7, and 20 μM necrostatin-1 (Nec-1s), (f) a combination of 10 ng/ml TNF-α, 1 μM 5Z-7, and 1 mM primidone (primidone is referred to in the Figures as compound A), (g) a combination of 10 ng/ml TNF-α, 1 μM 5Z-7, and 25 μM zVAD, (h) a combination of 10 ng/ml TNF-α, 1 μM 5Z-7, and 20 μM Nec-1s, and (i) a combination of 10 ng/ml TNF-α, 1 μM 5Z-7, 25 μM zVAD, and 1 mM primidone. TNF-α is a pro-inflammatory cytokine which triggers cell survival (canonical pathway) or cell death, depending on the cellular context. 5Z-7-oxozeaenol (5Z-7) is an inhibitor of transforming growth factor activated kinase 1 (TAK1). TAK1 is an intermediate in the signaling pathway of the TNF-receptor type 1 (TNFR1), and it is known that TAK1 is essential for the prevention of TNF-induced cell death. Cells in which TAK1 is disrupted or otherwise blocked are hypersensitive to TNF-α-induced cell death due to diminished prosurvival pathways including NF-κB and reduced antioxidant enzymes which results in activation of caspases. The compound zVAD is a pan-caspase inhibitor.

The nature of test [4]: TNF-α-induced SIRS mouse model. In kind it is in vivo. The note with it: C57BL/6 mice, 10 mg/kg i.p. 15 min before 1 mg/kg murine TNF-α i.v. The protocol:
Hypothermia and morbidity induced by a high dose of TNF-α is considered in the literature to be a model for systemic inflammatory response syndrome (SIRS) (Moerke C, et al. (2019); Newton K, et al. (2014); Duprez L, et al. (2011)). All mice (8 weeks old) used in this experiment were on C57BL/6 background and age-, sex-, and weight-matched. Recombinant carrier-free murine TNF-α was obtained from R&D Systems (Bio-Techne, Wiesbaden, Germany). Each mouse received a single bolus of 1 mg murine TNF-α/kg body weight in a total volume of […] phosphate-buffered saline, via the tail vein. In this setting, mice received 15 min before TNF-α application a single intraperitoneal (i.p.) injection (total volume per mouse was 200 μl) of either 2.5% DMSO in PBS (vehicle) or 10 mg primidone/kg body weight (as indicated). Thereafter, the animals (n=16 per group) were placed under permanent observation and survival was checked every 15 min. Survival is depicted in a Kaplan-Meier plot (*** p<0.001).

Consider `CCC1(c2ccccc2)C(=O)NCNC1=O` [primidone, 5-Ethyl-5-phenyl-1,3-diazinane-4,6-dione], for which, in the test on L929 cells [1], the “Cells still alive, compound added 60 min after induction of cell death” value amounted to 92.7% and the “Cells still alive, compound added 3 hours after induction of cell death” value amounted to 58.6%. In addition, the “Protection from RIPK1-mediated cell death induced by poly (I:C) and zVAD” value in the test on L929 cells [2] is recorded as “effectively protect cells”. Further, in the test on NF-κB, the “Activation (phosphorylation) of NF-κB” value is given as “Activation (phosphorylation) of NF-κB was detected”. Also, in the test with L929 cells [3] (L929, 10 ng/ml TNF-α + 1 μM 5Z-7 + 25 μM zVAD, 24 h), the “Block of RIPK1-dependent necroptosis” value is reported as “able to block”. Besides, in the test with L929 cells [3] (L929, 10 ng/ml TNF-α + 1 μM 5Z-7, 24 h, zVAD 25 μM), the “Block of RIPK1-dependent apoptosis (RDA)” value was “could also be blocked”. Also, the TNF-α-induced hypothermia result in test [4] is given as “significantly improves”. The “Survival after TNF-α injection” value in test [4] (vs vehicle, p<0.001) is on record as “significantly enhanced survival”.
